# Assay results from the supplement of paper PMC10307832.
# Key:
# Test in all cases: relative viability (nuclei count vs DMSO), 5 days (fraction); higher = more cells survive
# GSK126 + Tozasertib = compound: CC[C@H](C)N1C=C(C2=C(C=C(C=C21)C3=CN=C(C=C3)N4CCNCC4)C(=O)NCC5=C(C=C(NC5=O)C)C)C [GSK126] + Cc1cc(Nc2cc(N3CCN(C)CC3)nc(Sc3ccc(NC(=O)C4CC4)cc3)n2)n[nH]1 [Tozasertib] (partner 0.1 µM)
# Procedure, shortened: (§1)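 Lung cancer cell lines in 1536-well plates were dosed by pin tool the day after seeding, either with one drug alone or with a fixed anchor-drug dose plus five library-drug doses (not always all listed) in √10 steps. After 5 days, cells were fixed and their nuclei stained in one step (final 0.05% Triton X-100, 1% formaldehyde, 1 ug/ml Hoechst), then counted on 4× images. Relative viability is the nuclei count in treated wells divided by that in vehicle wells. Values are medians of duplicate plates.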
# GSK126 + Bortezomib = compound: CC[C@H](C)N1C=C(C2=C(C=C(C=C21)C3=CN=C(C=C3)N4CCNCC4)C(=O)NCC5=C(C=C(NC5=O)C)C)C [GSK126] + CC(C)C[C@H](NC(=O)[C@H](Cc1ccccc1)NC(=O)c1cnccn1)B(O)O [Bortezomib] (partner 0.002 µM)
# Procedure, shortened: as §1
# MLN4924 + Navitoclax = compound: NS(=O)(=O)OC[C@@H]1C[C@@H](n2ccc3c(N[C@H]4CCc5ccccc54)ncnc32)C[C@@H]1O [MLN4924] + CC1(C)CCC(c2ccc(Cl)cc2)=C(CN2CCN(c3ccc(C(=O)NS(=O)(=O)c4ccc(N[C@H](CCN5CCOCC5)CSc5ccccc5)c(S(=O)(=O)C(F)(F)F)c4)cc3)CC2)C1 [Navitoclax] (partner 0.5 µM)
# Procedure, shortened: as §1
# MLN4924 + Pemetrexed = compound: NS(=O)(=O)OC[C@@H]1C[C@@H](n2ccc3c(N[C@H]4CCc5ccccc54)ncnc32)C[C@@H]1O [MLN4924] + Nc1nc2[nH]cc(CCc3ccc(C(=O)N[C@@H](CCC(=O)O)C(=O)O)cc3)c2c(=O)[nH]1 [Pemetrexed] (partner 0.2 µM)
# Procedure, shortened: as §1
Cell Line,relative viability (GSK126 + Tozasertib; first compound 0.08 µM),relative viability (GSK126 + Tozasertib; first compound 0.253 µM),relative viability (GSK126 + Tozasertib; first compound 0.8 µM),relative viability (GSK126 + Tozasertib; first compound 2.53 µM),relative viability (GSK126 + Tozasertib; first compound 8 µM),relative viability (GSK126 + Bortezomib; first compound 0.08 µM),relative viability (GSK126 + Bortezomib; first compound 0.253 µM),relative viability (GSK126 + Bortezomib; first compound 0.8 µM),relative viability (GSK126 + Bortezomib; first compound 2.53 µM),relative viability (GSK126 + Bortezomib; first compound 8 µM),relative viability (MLN4924 + Navitoclax; first compound 0.04 µM),relative viability (MLN4924 + Navitoclax; first compound 0.1265 µM),relative viability (MLN4924 + Navitoclax; first compound 0.4 µM),relative viability (MLN4924 + Navitoclax; first compound 1.265 µM),relative viability (MLN4924 + Navitoclax; first compound 4 µM),relative viability (MLN4924 + Pemetrexed; first compound 0.04 µM),relative viability (MLN4924 + Pemetrexed; first compound 0.1265 µM),relative viability (MLN4924 + Pemetrexed; first compound 0.4 µM),relative viability (MLN4924 + Pemetrexed; first compound 1.265 µM),relative viability (MLN4924 + Pemetrexed; first compound 4 µM)
NCI-H2023,0.387,0.342,0.339,0.266,0.184,1.45,1.01,1.19,1.39,1.37,1,0.758,0.362,0.109,0.0667,0.219,0.234,0.123,0.0635,0.09
LC-2-ad,0.43,0.472,0.428,0.458,0.419,1.03,1.04,0.935,1.02,0.986,0.382,0.276,0.184,0.13,0.105,0.288,0.27,0.257,0.218,0.221
NCI-H460,0.419,0.33,0.574,0.352,0.103,1.34,1.1,1.06,1.09,1.18,1.01,1.04,0.431,0.0395,0.024,0.0658,0.0623,0.0708,0.059,0.0457
NCI-H1915,0.486,0.436,0.447,0.438,0.415,1.02,0.964,0.991,0.979,0.998,0.725,0.744,0.642,0.246,0.265,0.625,0.66,0.479,0.144,0.176
HOP-62,0.314,0.397,0.427,0.261,0.308,0.645,0.816,0.862,0.837,0.724,0.553,0.238,0.171,0.111,0.0613,0.235,0.175,0.0617,0.0458,0.0811
EPLC-272H,0.316,0.306,0.211,0.306,0.189,1.1,0.889,0.99,0.822,0.963,0.94,1.02,0.104,0.12,0.141,0.242,0.195,0.0979,0.128,0.155
NCI-H647,0.375,0.268,0.288,0.282,0.126,1.06,0.808,1.03,1.07,0.882,0.976,0.424,0.159,0.0575,0.0744,0.156,0.119,0.0763,0.0395,0.0465
NCI-H2009,0.798,0.705,0.639,0.615,0.464,1.3,0.951,0.992,1.16,1.09,0.809,0.365,0.293,0.0903,0.0793,0.941,0.884,0.218,0.133,0.0755
NCI-H2405,0.767,0.71,0.752,0.697,0.608,0.988,0.974,0.985,0.982,0.975,0.874,0.702,0.273,0.13,0.171,0.806,0.863,0.44,0.187,0.193
NCI-H322M,0.501,0.51,0.49,0.472,0.499,1.12,1.26,1.27,1.25,1.26,1.3,1.22,0.844,0.338,0.382,0.719,0.776,0.549,0.3,0.422
NCI-H2085,0.918,0.734,0.76,0.72,0.654,1.19,0.998,1.12,1.04,1.05,1.25,1.1,1.12,0.733,0.366,0.916,0.91,0.888,0.882,0.451
PC-3 [JPC-3],0.879,0.919,0.883,0.866,0.805,0.823,1.01,0.786,0.817,0.856,0.785,0.788,0.66,0.321,0.419,1.1,1.26,0.288,0.311,0.377
NCI-H1355,0.573,0.495,0.546,0.533,0.378,1.27,1.33,1.11,1.17,1.19,0.982,0.847,0.657,0.268,0.302,1.01,1.07,0.879,0.547,0.256
NCI-H1650,0.42,0.455,0.394,0.356,0.3,0.233,0.25,0.185,0.183,0.19,1.02,0.739,0.438,0.156,0.176,0.377,0.471,0.248,0.168,0.185
NCI-H838,0.293,0.269,0.255,0.261,0.242,0.935,0.828,0.662,0.613,0.767,0.831,0.307,0.211,0.16,0.196,0.225,0.2,0.188,0.173,0.164
